Test results reported in patent US20250092345A1, “INTER ORGAN PLATFORM FOR MICROPHYSIOLOGICAL SYSTEM ON A CHIP” (THE TRUSTEES OF COLUMBIA UNIVERSITY IN THE CITY OF NEW YORK, priority 2020, published 2025).

How the values were obtained:
[1] = tested on: non-metastatic TE-ES bone tumor tissues; assay: Non-metastatic ES bone tumor in the integrated platform with microfluidic perfusion, linsitinib; type: cell-based, human; details: 12 μM
Procedure: The TE-ES and cardiac tissues were then cultured in the integrated platform with perfusion of mixed media. Linsitinib was introduced into the reservoir and delivered to tissues via circulation of perfusate and diffusion into the tissues.
ES cells, when co-cultured with mesenchymal stem cells and exposed to physiological shear-stress in a perfusion bioreactor, can become resistant to IGF-1R inhibitors. Therefore, we evaluated the role of flow derived shear stress in this newly found resistance of non-metastatic TE-ES bone tumor tissues to the IGF-1R inhibitor linsitinib. Linsitinib was introduced into the platform (12 µM, 3 days), either via circulation or directly into the TE-ES tissue chamber (FIG. 34G), to distinguish effects of flow-derived stimuli from drug diffusion into the tissues.
Upon maturation, bone tumors in the platform were exposed to a 1:1 mixture of the bone tumor and cardiac tissue media, supplemented by 12 μM linsitinib in the treated groups. […]
Cell viability was analyzed using a previously established protocol. Cancer cell viability was measured for GFP-Luciferase labelled cancer cells using ONE-Glo luciferase substrate that was prepared according to manufacturer's protocol (Promega). […] Where noted, longitudinal cell viability was also assessed using luminescence, though at the cost of signal strength. […] Some of the IC50 values were determined using cell viability data generated using an MTT assay (RealTime-Glo™ MT Cell Viability Assay, Promega) that were analyzed according to manufacturer's protocol.
In order to confirm linsitinib mechanism of action in ES cells, both RD-ES and SK-N-MC monolayers were treated with 12 μM linsitinib for 6 hours, lysed, measured for protein quantity using a Pierce™ BCA Protein Assay Kit (ThermoFisher), and loaded equally onto a Human Phospho-IGF1R ELISA (RayBiotech) to semi-quantitatively determine phosphorylated levels of the IGF-1 receptor, according to manufacturer's instructions. Osteocalcin (OCN), osteopontin (OPN), and lactic acid dehydrogenase (LDH) secreted levels were all measured using a similar approach. […]

[2] = tested on: non-metastatic TE-ES (RD-ES); assay: Non-metastatic engineered ES bone tumor (TE-ES) in isolated culture, linsitinib; type: cell-based, human
Excerpt: The effects of linsitinib were studied in an experiment performed according to the 3-week treatment cycle used in the clinical trial (3 days of drug administration followed by 4 days without the drug, in 3 cycles), with luminescence signal serving as an indicator of cancer cell viability within the TE-ES.
Determining the effects of linsitinib on ES cells and osteoblasts within the engineered ES bone tumors across a 3-week clinical drug treatment regimen is shown in FIGS. 33A-33B. […] Supernatants were collected from each individual sample across the duration of the drug treatments and were analyzed for osteoblast function (OCN, OPN) and for cytotoxicity (LDH) (mean±s.e.m., n=3).
Two weeks following the initiation of osteogenic differentiation, aggregates of ES tumor cells were prepared as described previously, using 0.3×10^6 cells per aggregate. After 1 week of culture, corresponding to the end of bone tissue culture (3 weeks), the primary ES cell aggregates were placed into the engineered bone constructs (3 aggregates per construct, placed apart of each other). Tumor models were established for two different types of primary ES cells: non-metastatic (RD-ES) and metastatic (SK-N-MC). Tissue engineered RD-ES and SK-N-MC tumors were cultured in the RPMI and EMEM media, respectively, supplemented with 10% FBS and 1% penicillin/streptomycin. Bone constructs cultured without tumor cell aggregates (TE-bone) in RPMI and EMEM media were used as controls.
Specifically, linsitinib was dissolved at a 10 mM concentration in DMSO (Corning) and mixed in with the respective cell medium at a […] concentration unless otherwise noted. Vehicle treatments involved just the addition of DMSO at identical volumes as a control. Tissues were randomly assigned to experimental groups. Medium was changed every day.
To assess apoptosis, paraffin embedded tissue sections were first deparaffinized with CitriSolv, rehydrated with graded series of ethanol washes, and then stained with a Click-iT® TUNEL Alexa Fluor® imaging assay (Thermo Fisher Scientific). Following nuclear counterstaining with DAPI (Life Technologies), the TUNEL labelled slides were imaged with an IX81 inverted fluorescent microscope (Olympus) and a Pike F032B camera (ALLIED Vision), using NIS-Elements AR software, and processed using ImageJ (NIH). Four representative images per condition were then analyzed using the previously developed automatic TUNEL cell counter plugin for ImageJ to quantify DAPI^+ cells and TUNEL^+ cells.
Cell viability was analyzed using a previously established protocol. Cancer cell viability was measured for GFP-Luciferase labelled cancer cells using ONE-Glo luciferase substrate that was prepared according to manufacturer's protocol (Promega). Samples were collected following 3, 7, and 21 days cycles of linsitinib treatment. Where noted, longitudinal cell viability was also assessed using luminescence, though at the cost of signal strength. Briefly, in vivo grade VivoGlo™ Luciferin (Promega) was made at a 200× stock concentration (30 mg/ml) in water, added to sample culture media at a 1:200 dilution, and scanned using a spectrophotometer (Biotek). Some of the IC50 values were determined using cell viability data generated using an MTT assay (RealTime-Glo™ MT Cell Viability Assay, Promega) that were analyzed according to manufacturer's protocol.
Osteocalcin (OCN), osteopontin (OPN), and lactic acid dehydrogenase (LDH) secreted levels were all measured using a similar approach.

[3] = cited from earlier work

## C[C@]1(O)C[C@@H](c2nc(-c3ccc4ccc(-c5ccccc5)nc4c3)c3c(N)nccn32)C1 [linsitinib]
[1]; 3 days, directly into the tissue chamber (immediate exposure)
  response to the drug (luminescence): fast response
[1]; 3 days, perfused integrated platform
  drug response (luminescence): insignificant drug response
[1]; 72 hours, perfused integrated platform
  secretion of LDH, vehicle vs linsitinib treated: no significant difference
[2]; 0, 1.2, 12 and 120 μM, 72 hours
  response of cell viability (luminescence) to concentration: dose-dependent response
[2]; 12 μM
  apoptosis (TUNEL assay): increases in apoptosis
  cell viability (luminescence): significant reduction
[2]; 12 μM regimen, 1:1 mixed media
  OCN secretion: increased only slightly
  cancer cell population level maintained (luminescence): ~30 % of their starting population
[2]; 12 μM, 3-week regimen
  cytotoxicity (LDH secretion): spiked in both models immediately following drug administration, but significantly more so in the responsive, non-metastatic ES model
  osteocalcin secretion: decreased
[2]; 12 μM, 21-day treatment regimen
  cancer cell population (luminescence) across the clinical regimen: initial decrease in cancer cell population in the non-metastatic model and this population appeared unable to continue expanding
[2]; 12 μM, after 3 days
  drug response (luminescence): significant drug response
[2]; 12 μM, throughout the 21 days
  osteopontin secretion: significantly increased
[2]; second 21-day 12 μM regimen on tumors from sorted resistant cells
  drug response of ES resistant-cell derived tumors (luminescence): significant initial drug response
[3]; Phase II clinical trial, no patients completing the trial
  clinical outcome in ES: unable to stop progression of ES
[3]; clinical trials of other types of cancer
  atrial fibrillation: 3.75-5%
